Data reported in patent publication US8088951B2, “Epigenetic mechanisms re-establish access to long-term memory after neuronal loss” (Massachusetts Institute of Technology, priority 2006, dated 2012).

Assays:
[1] = system: C57BL/6J mice; experiment: Contextual fear conditioning (associative learning) in wild type mice; assay type: in vivo; settings: for associative learning, contextual fear conditioning paradigm: wildtype mice, chronic treatment for 10-21 days
Source text: Learning tests: All behavioral testing is described in Fischer et al. (3).
Mechanism underlying EE. Other than a few genes involved in synaptic function, relatively little is known about the mechanism underlying EE (12-14). Since histone acetylation, an epigenetic mechanism regulating gene expression via chromatin remodeling, has recently been implicated in synaptic plasticity and learning behavior (15-18), the induction of a transcriptional program by EE that leads to activation of plasticity genes was evaluated. Wild type mice were subjected to EE and hippocampal and cortical brain lysates were obtained 3, 24 h or 2 weeks later (n=3/group) by acid extraction and probed with antibodies detecting histone-tail modification that indicate active chromatin. Increases in hippocampal H3 (K-9, K14) and H4 (K-5) and in cortical H3 (K-9) and H4 (K-5) acetylation were observed. […] No changes in H4 acetylation were observed when the Ac-H4 (K,8,12,16) antibody was used, which is likely due to the fact that H4-K16 is a marker of condensed chromatin. EE induced hippocampal and cortical histone 3 (H3) and histone 4 (H4) acetylation and […] as soon as 3 hours after treatment (FIGS. 3a, b). […] To investigate whether inhibition of HDACs mimics the effects of EE, SB was administered daily [ip] into wild type mice for 4 weeks (FIG. 3c). […] Two days after the last injection mice were trained in the fear conditioning paradigm. […] Locomotor activity or basal anxiety was not altered in SB-injected mice (FIG. 8c).
The effect of sodiumbutyrate injection on learning, basal anxiety, explorative behavior and brain plasticity. C57BL/6J mice were subjected to fear conditioning and injected intraperitoneally [ip] with 1.2 g/kg sodiumbutyrate (SB, n=8) or saline (vehicle; n=8) immediately afterwards. […] C57BL/6J mice were implanted with microcannulae into the lateral brain ventricles (icv) and injected with either 100 ng SB, 50 ng TSA or vehicle immediately after fear conditioning (n=8/group). […] C57BL/6J were daily injected [ip] with SB or saline (n=8/group) for 4 weeks before all mice were subjected to the elevated plus maze and open field test. […] Immunoblots were quantified relative to the optical density of the vehicle-group (set to 1). […] The analysis was performed as described under FIG. 1g.
(§1) The effects of SAHA and MS-275, relative to sodium butyrate (SB), on the hippocampus dependent associative learning in wildtype mice.
Mice were injected 10 days with either 5 mg/kg of MS275 or 25 mg/kg of UW_WT-I—06 or UW_WT-I—05 before training and memory tests as described above. […] Andorfer, C. et al. Cell-cycle reentry and cell death in transgenic mice expressing nonmutant human tau isoforms. J neurosci 25, 5446-5454 (2005). • 2. Santacruz, K. et al. Tau suppression in a neurodegenerative mouse model improves memory function. Science 309, 476-481 (2005). • 3. Fischer, A., Sananbenesi, F., Pang, P. T., Lu, B. & Tsai, L. H. Opposing roles of transient and prolonged expression of p25 in synaptic plasticity and hippocampus-dependent memory. Neuron 48, 825-838 (2005). • 4. Cruz, J. C. & Tsai, L. H. Jekyll and Hyde kinase: roles for Cdk5 in brain development and disease. Curr Opin Neurobiol. 14, 390-394 (2004). • 5. Cruz, J. C., Tseng, H. C., Goldman, J. A., Shih, H. & Tsai, L. H. Aberrant Cdk5 activation by p25 triggers pathological events leading to neurodegeneration and neurofibrillary tangles. Neuron 40, 471-83 (2003). • 6. Nithianantharajah, J. & Hannan, A. J. Enriched environments, experience-dependent plasticity and disorders of the nervous system. Nat Rev Neurosci 7, 697-709 (2006). • 7. Kim, J. J. & Fanselow, M. S. Modality-specific retrograde amnesia of fear. Science 256, 675-7 (1992). • 8. Gilmore, E. C. & Herrup, K. Neocortical cell migration: GABAergic neurons and cells in layers I and VI move in a cyclin-dependent kinase 5-independent manner. J Neurosci 21, 9690-700 (2001). • 9. […]

[2] = system: lys9lys 14 on histone 3 and lys5 on histone 4; experiment: Histone acetylation in brain lysates of treated mice; assay type: in vivo; settings: compared to saline treated mice
Description: Immunoblotting and staining: Lysates for immunoblotting were prepared as described by Fischer et al. (3). To isolate histones, brain tissue was homogenized in TX-buffer (50 mM Tris HCL, 150 mM NACL, 2 mM EDTA, 1% Triton-100) and incubated at 4° C. for 15 min prior to centrifugation at 200 rpm for 10 min. After a wash-step in TX-buffer the pellet was dissolved in TX-buffer containing 0.2M HCl and incubated on ice for 30 min, before a second centrifugation at 10000 rpm for 10 min. The supernatant was either dialysed or directly used for immunoblotting. Antibodies were used in 1:1000 concentrations. All antibodies detecting histones and anti-PSD-95 were form Upstate (Lake Placid, N.Y.). Anti-synaptophysin (SVP38) was from Sigma. Anti-neuronal nuclei (neuN) and anti-growth associated protein (Gap43) were from Chemicon (Temecula, Calif.) and anti-N-cadherin, anti-β-catenin were from Santa Cruz (Santa Cruz, Calif.). Immunostaining was performed as described by Fischer et al. (3). Antibodies mentioned above were used in a 1:500 dilution. Anti-MAP-2 antibody (Sigma) was used in a 1:200 dilution.
as §1

[3] = system: dentate gyrus; experiment: Neurogenesis in dentate gyrus (BrdU, DCX); set-up: species or system mice; settings: mouse, in vivo
Source text: (§2) HDAC inhibitors regulate neuronal activity and neurogenesis in dentate gyrus. […] Thus, activity induced c-fos expression may also be used to evaluate the effect of HDAC inhibitors on hippocampus dependent learning. FIG. 17d is a bar graph depicting the significant enhancement by SAHA.

[4] = system: c-fos; experiment: c-fos positive cells after fear conditioning training; assay type: in vivo, mice; settings: compared to saline treated group
Source text: as §2

Row | Compound | associative learning, contextual fear conditioning paradigm [1] | acetylation of lys9lys 14 on histone 3 and lys5 on histone 4 in brain lysates [2] | DCX (marker for newly generated neurons) labeled cells in dentate gyrus [3] | number of c-fos positive cells [4] | BrdU positive cells in the subgranule zone of the dentate gyrus [3] | freezing behavior during the memory test ([1]; icv 100 ng SB or 50 ng TSA immediately after fear conditioning, test 24 h later, P<0.0001) | associative learning ([1]; wild type mice, intraperitoneal [ip] and intracerebroventricular [icv] injections)
1 | Nc1ccccc1NC(=O)c1ccc(CNC(=O)OCc2cccnc2)cc1 [MS-275] | does not facilitate associative learning | increased acetylation of lys9lys 14 on histone 3 and lys5 on histone 4 | not | lower number of c-fos positive cells |  |  | 
2 | O=C(CCCCCCC(=O)Nc1ccccc1)NO [SAHA, suberoylanilide hydroxamic acid] | more potent than SB in facilitating associative learning | increased acetylation of lys9lys 14 on histone 3 and lys5 on histone 4 | labeled more cells | higher number of c-fos positive cells | increased BrdU positive cells |  | 
3 | CC(/C=C/C(=O)NO)=C\[C@@H](C)C(=O)c1ccc(N(C)C)cc1 [TSA, trichostatin A] |  |  |  |  |  | more freezing behavior than vehicle injected mice | significantly facilitated associative learning
